Experimental data as given in patent US20230414826A1, “FIBRIN HYDROGELS” (Mayo Foundation for Medical Education and Research, priority 2020, published 2023).

Biological target: T1, fibrinogen (Evicel) (Homo sapiens, UniProt P02671+P02675+P02679)
T1 construct: purchased Ethicon (Evicel Biologically Active Component 2)
T1 sequence (P02671 20-629 limits assumed): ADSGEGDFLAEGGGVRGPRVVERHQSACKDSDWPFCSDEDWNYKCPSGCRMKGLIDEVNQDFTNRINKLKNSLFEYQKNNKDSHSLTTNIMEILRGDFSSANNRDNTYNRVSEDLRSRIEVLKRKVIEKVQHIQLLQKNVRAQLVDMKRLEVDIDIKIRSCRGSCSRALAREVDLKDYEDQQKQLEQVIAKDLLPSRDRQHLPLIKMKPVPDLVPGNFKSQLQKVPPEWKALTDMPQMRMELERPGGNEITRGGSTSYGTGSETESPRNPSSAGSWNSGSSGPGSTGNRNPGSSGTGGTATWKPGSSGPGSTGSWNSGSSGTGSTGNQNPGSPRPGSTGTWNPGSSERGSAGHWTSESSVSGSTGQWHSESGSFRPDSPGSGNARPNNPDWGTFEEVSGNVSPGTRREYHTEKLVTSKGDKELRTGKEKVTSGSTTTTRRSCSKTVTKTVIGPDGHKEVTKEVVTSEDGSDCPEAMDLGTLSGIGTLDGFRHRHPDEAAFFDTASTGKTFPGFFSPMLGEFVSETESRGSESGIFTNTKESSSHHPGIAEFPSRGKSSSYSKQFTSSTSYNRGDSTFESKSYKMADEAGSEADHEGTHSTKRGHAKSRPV
T1 sequence (P02675 31-491): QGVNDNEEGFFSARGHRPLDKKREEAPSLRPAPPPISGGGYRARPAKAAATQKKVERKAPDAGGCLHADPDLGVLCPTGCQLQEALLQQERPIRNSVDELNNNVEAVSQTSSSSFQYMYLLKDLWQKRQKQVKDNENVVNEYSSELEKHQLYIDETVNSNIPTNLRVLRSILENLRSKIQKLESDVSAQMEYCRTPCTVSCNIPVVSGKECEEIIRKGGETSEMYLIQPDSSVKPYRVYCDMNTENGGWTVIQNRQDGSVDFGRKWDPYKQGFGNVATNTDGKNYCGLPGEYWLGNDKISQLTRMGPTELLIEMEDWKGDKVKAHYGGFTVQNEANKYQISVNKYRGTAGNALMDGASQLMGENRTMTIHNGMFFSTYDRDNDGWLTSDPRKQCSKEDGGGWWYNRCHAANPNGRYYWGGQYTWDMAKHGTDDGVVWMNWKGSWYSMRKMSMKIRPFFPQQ
T1 sequence (P02679 27-433 limits assumed): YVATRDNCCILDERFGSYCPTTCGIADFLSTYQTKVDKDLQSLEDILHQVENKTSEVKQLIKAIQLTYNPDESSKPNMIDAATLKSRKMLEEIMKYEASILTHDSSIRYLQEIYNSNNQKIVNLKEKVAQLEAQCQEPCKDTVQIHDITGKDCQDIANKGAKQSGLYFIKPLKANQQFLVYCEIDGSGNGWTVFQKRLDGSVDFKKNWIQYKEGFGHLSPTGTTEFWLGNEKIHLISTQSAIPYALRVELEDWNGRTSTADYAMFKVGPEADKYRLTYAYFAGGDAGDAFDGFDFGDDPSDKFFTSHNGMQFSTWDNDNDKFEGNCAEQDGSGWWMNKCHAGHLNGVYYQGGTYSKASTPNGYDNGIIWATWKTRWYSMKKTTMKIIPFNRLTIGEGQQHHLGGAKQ
Experiment: Fibrinogen clotting assay with coagulation analyzer (Clauss method), tissue glue fibrinogen
Assay type: biochemical
Conditions: for gelation time (average clotting time): 4.58 mM additive in PBS, fixed 1:20 dilution of fibrinogen (Evicel); for clot time: dye 0.1% w/v; for Effect on Clotting Time: screen, multiple concentrations up to 4.58 mM

[1] = 0.01% (w/v) dye, 1:20 dilution of fibrinogen, n=10
[2] = 0.05% (w/v) dye, 1:20 dilution of fibrinogen, n=10
[3] = 0.10% (w/v) dye, 1:20 dilution of fibrinogen, n=10

Compound | gelation time (average clotting time) (n=10) [s] | clotting time [1] [s] | clotting time [2] [s] | clotting time [3] [s] | clotting time (0.2% (w/v) dye, 1:20 dilution of fibrinogen, n=10) [s] | clotting time (0.3% (w/v) dye, 1:20 dilution of fibrinogen, n=10) [s] | clotting time (0.4% (w/v) dye, 1:20 dilution of fibrinogen, n=10) [s] | clot time (fibrinogen 10.0 mg/mL) [s] | clot time (fibrinogen 10.9 mg/mL) [s] | clot time (fibrinogen 12.0 mg/mL) [s] | clot time (fibrinogen 13.3 mg/mL) [s] | clot time (fibrinogen 17.1 mg/mL) [s] | clot time (fibrinogen 24.0 mg/mL) [s] | Effect on Clotting Time | clotting time (0.2-0.4% dye, out of range of detection of the coagulation analyzer) [s]
Cc1cc(-c2ccc(/N=N/c3c(S(=O)(=O)O)cc4cc(S(=O)(=O)O)cc(N)c4c3O)c(C)c2)ccc1/N=N/c1c(S(=O)(=O)O)cc2cc(S(=O)(=O)O)cc(N)c2c1O [TB, Trypan Blue] | 46.3 ± 3.2 | 17.6 ± 0.3 | 18.1 ± 1.4 | 24.4 ± 2.3 | 26.2 ± 4.2 | 25.2 ± 2.9 | 29.8 ± 1.2 | 15.7 ± 3.1 | 16.3 ± 0.4 | 11.6 ± 3.7 | 18.1 ± 0.4 | 7.4 ± 0.1 | 5.6 ± 0.1 | Increase | –
Cc1cc(-c2ccc(/N=N/c3ccc4c(S(=O)(=O)O)cc(S(=O)(=O)O)c(N)c4c3O)c(C)c2)ccc1/N=N/c1ccc2c(S(=O)(=O)O)cc(S(=O)(=O)O)c(N)c2c1O [EB, Evans Blue] | > 70 | 19.4 ± 0.7 | 34.8 ± 4.7 | 43.6 ± 2.5 | – | – | – | 50.9 ± 4.9 | 39.5 ± 3.3 | 31.7 ± 1.8 | 25.7 ± 1.0 | 14.8 ± 0.4 | 8.9 ± 2.3 | Increase | > 70
